Results: patent US7452902B2, “Imidazopyridines as cyclin dependent kinase inhibitors” (Schering Corporation, priority 2002, dated 2008)

Biological target: T1, Cyclin E/CDK2 (Homo sapiens, UniProt P24941)
T1 construct: The expressed protein was approximately 34 kDa in size; made in house; host or cells: SF9 insect cells (baculovirus, pVL1393)
Assay: Cyclin E/CDK2 in vitro kinase assay (SPA, 33P-ATP, biotinylated Histone H1 peptide)
Type: biochemical
Conditions: recombinant cyclin E/CDK2 from SF9 cells; 1 hour at room temperature; 8 point serial dilutions in duplicate

Compound	IC50 [nM]
Brc1cnc2c(NCc3cncnc3)cc(-c3ccccc3)cn12	120
Clc1ccccc1-c1cc(NCc2cncnc2)c2ncc(Br)n2c1	36
Nc1ncc(CNc2cc(-c3ccccc3Cl)cn3c(Br)cnc23)cn1	76
